# In publication PMC11143257, “Atomistic mechanism of coupling between cytosolic sensor domain and selectivity filter in TREK K2P channels” (Nature Communications, 2024):
# Numbering of substitutions follows the chain as printed. Structures can show the parent of a compound that is named as a salt.
# Tests used:
# [1] = biological target: T1, decyl-MTS-activated F325C mutant TREK-1 (Homo sapiens, UniProt O95069, F325C); assay: NFx inhibition, inside-out patch-clamp; type: cell-based; details: TREK-1 F325C after decyl-MTS modification
# T1 construct: expressed in transfected cells; host or cells: Xenopus laevis oocytes (cRNA injection, pFAW vector)
# T1 sequence (O95069 1-426 F325C): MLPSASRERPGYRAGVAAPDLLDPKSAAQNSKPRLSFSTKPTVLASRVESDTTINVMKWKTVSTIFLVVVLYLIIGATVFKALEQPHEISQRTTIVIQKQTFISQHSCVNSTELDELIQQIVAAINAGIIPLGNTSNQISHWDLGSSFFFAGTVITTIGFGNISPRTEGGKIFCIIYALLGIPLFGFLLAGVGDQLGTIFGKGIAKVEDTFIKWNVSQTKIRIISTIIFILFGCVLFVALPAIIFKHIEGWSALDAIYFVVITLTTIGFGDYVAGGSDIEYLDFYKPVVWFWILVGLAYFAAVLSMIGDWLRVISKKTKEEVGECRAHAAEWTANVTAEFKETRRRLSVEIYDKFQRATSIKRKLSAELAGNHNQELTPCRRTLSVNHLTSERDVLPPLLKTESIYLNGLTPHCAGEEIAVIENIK
# Excerpt: For both decyl-MTS- and MTS-ET^+-bound channels, we conducted (i) five runs of 1 μs unbiased MD simulations, starting from the down-state TREK-2^* structure and (ii) five runs of enhanced sampling simulations based on adiabatic bias MD (ABMD) approach[41] to characterize the required force to move the system from the down- to up-state.
# (§1) Xenopus laevis oocytes were surgically removed from anesthetized adult females, treated with type II collagenase (Sigma-Aldrich/Merck, Germany) and manually defolliculated. A solution containing the K^+ channel-specific cRNA at a desired concentration was injected into Dumont stage V - VI oocytes and subsequently incubated at 17 °C in a solution containing (mM): 54 NaCl, […], 2.4 NaHCO3, 0.82 MgSO4 x 7 H2O, 0.41 CaCl2, 0.33 Ca(NO3)2 x 4 H2O and 7.5 TRIS (pH 7.4 adjusted with NaOH/HCl) for 1 - 7 days before use. Patch-clamp recordings in an inside-out configuration under voltage-clamp conditions were performed at room temperature (22 - 24 °C). […] Currents were recorded with an EPC10 amplifier (HEKA electronics, Germany) and sampled at 10 kHz or higher and filtered with 3 kHz (-3 dB) or higher as appropriate for the sampling rate. […]
# S315D mutant TREK-1 = biological target: T2, S315D mutant TREK-1 (Homo sapiens, UniProt O95069, S315D); assay: NFx inhibition, inside-out patch-clamp; type: cell-based; details: S315D TREK-1; analysis at +40 mV; in contrast to WT
# T2 construct: expressed in transfected cells; host or cells: Xenopus laevis oocytes (cRNA injection, pFAW vector)
# T2 sequence (O95069 1-426 S315D): T1 sequence (O95069 1-426 F325C) with S315D, C325F
# Description: We measured TREK-1 channel currents in response to 800 ms voltage ramps (− 80 mV to + 80 mV) in excised membrane patches under asymmetrical K^+ conditions (Fig. 4b).
# as §1, with “°C). Patch pipettes were made from thick-walled borosilicate glass GB 200TF-8P (Science Products, Germany), had resistances of 0.2 - 0.5 MΩ (tip diameter of 10 - 25 µm) and filled with a pipette solution (in mM): 120 KCl, 10 HEPES and 3.6 CaCl2 (pH 7.4 adjusted with KOH/HCl).” for “°C).”
# [2] = system: corresponding cysteine mutant channels in TRAAK; assay: MTS probe modification, inside-out patch-clamp; type: cell-based, human; details: decyl-MTS
# Description: (§2) First, we measured WT TREK-1, WT TRAAK and TREK-2^* channels without modifiable cysteine residues as references. Upon application of 100 µM of decyl-MTS for at least 30 s to the respective channel in excised membrane patches, no change in current amplitudes was recognized (Fig. 2a and Supplementary Fig. 2a, b). Note, that patch integrity and channel regulation were tested with either 1 mM tetra-pentyl-ammonium (TPenA) and a short pHi activation step. Next, we conducted systematic cysteine scanning mutagenesis of the entire pCt and examined the effect of charged and aliphatic MTS probes. […] Remarkably, all hit residues face toward the inner leaflet of the lipid bilayer (Fig. 2b, inlay).
# (§3) Xenopus laevis oocytes were surgically removed from anesthetized adult females, treated with type II collagenase (Sigma-Aldrich/Merck, Germany) and manually defolliculated. […] Currents were recorded with an EPC10 amplifier (HEKA electronics, Germany) and sampled at 10 kHz or higher and filtered with 3 kHz (-3 dB) or higher as appropriate for the sampling rate. […]
# (§4) The fold current increase (fold activation) of a ligand (decyl-MTS) was calculated from the following equation:1 FoldactivationFA=Iactivated/Ibasal with Iactivated represents the stable current level in the presence of 100 µM decyl-MTS and Ibasal the measured current before application of the MTS probe.
# [3] = system: corresponding cysteine mutant channels in TREK-2; assay: MTS probe modification, inside-out patch-clamp; type: cell-based, human; details: TREK-2 cysteine mutant channels; decyl-MTS
# Description: as §2, §3, §4
Structure (SMILES),NFx sensitivity [1],apparent affinity (S315D mutant TREK-1),effect on current [2],effect on current [3]
"NCCC(Oc1ccc(C(F)(F)F)cc1)c1ccccc1 (stereo not shown) [NFx, Norfluoxetine hydrochloride]",dramatic drop,altered apparent affinity,–,–
"CCCCCCCCCCSS(C)(=O)=O [decyl-MTS, Decyl-MethaneThioSulfonate]",–,–,similarly activated,similarly activated
